Measured values: PMC12455130, “Multifunctional molecular agent for tau-targeted combinational therapy of Alzheimer’s disease” (The Journal of Biological Chemistry, 2025)

Tests used:
[1] = system: tau-infected SK-N-SH cells; assay: Immunofluorescence / ThS staining of intracellular tau aggregation; type: cell-based, human; conditions: 1.5 μM R3 aggregates, 10 μM inhibitor; for fluorescence intensity of ThS against the control group: ImageJ
Protocol: The red fluorescence of antitau antibody (Cy3-AB) staining marked for Pan Tau protein. […] Finally, the fluorescence intensity was quantitatively analyzed via ImageJ (National Institutes of Health).
Figure 8 Confocal laser scanning microscopy images of SK-N-SH cells incubated with R3 aggregates and different inhibitors. 2-(4-Amidinophenyl)-6-indolecarbamidine dihydrochloride (DAPI) for nuclei staining (blue); Thioflavin S (ThS) for aggregated Tau protein (green); Cy3 marked anti-Tau antibody (Cy3-AB) for Pan Tau protein (all conformations of Tau) (red). Concentrations of R3 aggregates and inhibitors are 1.5 μM and 10 μM, respectively. Scale bar represents 25 μm.
Tau-infected pathological model cell lines were constructed by human neuroblastoma SK-N-SH cells using R3 aggregates as inducer, referring our earlier article ([28]). R3 aggregates were obtained from coincubation of 15 μM R3 peptide with 3.8 μM heparin in PBS at 37 °C for 4 h. Then, the solution was diluted to 1.5 μM in the culture medium. SK-N-SH cells were seeded onto 24-well plates (1 × 10^5/well) for 24 h. Then, 10 μM of different compounds (inhibitors) per well was added and incubated for 2 h. After changing the culture medium, these cells were treated with 1.5 μM R3 aggregates for 12 h and then further continued incubation for 12 h.
The samples were successively treated with 4% paraformaldehyde and 0.1% Triton X-100 for 15 min each and washed three times with PBS. Blocked with 5% goat serum for 30 min, the samples were incubated with rabbit anti-Tau antibody (1:200 dilution) at 4 °C for 24 h and washed three times with PBS. Then they were incubated with Cy3-conjugated Donkey Anti-Rabbit IgG (1:1000 dilution) at 37 °C for 1 h and washed three times with PBS. Subsequently, 60 μM ThS was added to stain tau aggregates for 15 min and washed three times with PBS. Finally, cells were stained with 2-(4-amidinophenyl)-6-indolecarbamidine dihydrochloride (0.02%) for 5 min to staining nuclei and washed three times with PBS. The antifade mounting medium was used for cell slides to ensure fluorescence. The fluorescence signals were monitored using a CLSM (Leica TCS SP8).
Fig. S16 Quantitatively analysis of the fluorescence intensity in the Confocal laser scanning microscopy images ([…]) of SK-N-SH cells incubated with R3, heparin and different inhibitors by ImageJ software. Florescence intensity per cell (n = 8), analyzed by ImageJ software.

[2] = molecular target: T1, tau peptide R3 (Homo sapiens, UniProt P10636); assay: ThS assay, heparin-induced R3 aggregation (kinetics and dose-response); type: biochemical; conditions: for IC50: 3 h at 37 °C, ThS fluorescence; for inhibition of R3 assembly (ThS kinetics): 5, 10 and 40 μM, 15 μM R3, heparin
T1 construct: R3 (^306VQIVYK PVDLSK VTSKCG SLGNIH HKPGGG Q^336) and rabbit anti-tau antibody were purchased from MuJin; purchased MuJin
T1 sequence (P10636 623-653 limits assumed): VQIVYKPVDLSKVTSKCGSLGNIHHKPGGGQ
Protocol: The inhibition effect of 4GA–2GA on R3 aggregation was explored by thioflavin S (ThS) assay ([24]). In general, the kinetics of R3 aggregation in the absence or the presence of 4GA, 2GA was assessed by measuring the emission intensity of ThS at 500 nm, which reflects the amount of R3 aggregates. As the control experiments, the aggregation kinetics of 4ME and GA were also carried out. While induced by heparin, R3 aggregates rapidly at 37 °C, and the fluorescence of ThS reaches a maximum after an average time of 200 s (Fig. 4A). Based on the aforementioned conditions, the inhibitory ability of our synthetic compounds at three different concentrations (5, 10, and 40 μM) was tested.
Next, the dose–response inhibitory effects of our synthetic compounds on R3 aggregation were investigated. The detailed experimental operation was descripted in ESI. […] The apparent values of IC50 were calculated according to the dose−response curve.
Tau peptide R3 was adjusted to a concentration of 15 μM using 50 mM Tris−HCl buffer (pH 7.4), ThS (final concentration of 10 μM), and different amounts of 4GA, 2GA, 4ME, and GA (final concentration of 0, 5, 10, and 40 μM) as the aggregation inhibitor were added in1to the reaction mixture. Aggregation was induced by adding heparin to the solution (final concentration of 3.8 μM); the kinetics of each sample was immediately monitored by a fluorescence spectrophotometer with a 10-mm quartz cell at 440/500 nm (excitation/emission). A circulating water bath was necessary to maintain the temperature at 37 °C.
Tau peptide R3 was adjusted to a concentration of 15 μM using 50 mM Tris–HCl buffer (pH 7.4). Different amounts of 4GA, 2GA, 4ME, and GA (final concentration of 0, 1, 2, 4, 6, 10, 15, 20, 30, 40, 60, or 80 μM) as the aggregation inhibitors were added into the reaction mixture. Aggregation was induced by adding heparin to the solution (final concentration of 3.8 μM), After 3 h incubation at 37°C, ThS (final concentration of 10 μM) was added, and the fluorescence intensity at 440/500 nm (excitation/emission) was recorded on Hitachi F-7000 with a 10-mm quartz cell. The dose−response inhibitory effects of R3 aggregation were expressed by the aggregation percentage, which was calculated according to the following (Formula 4.3):(4.3) aggregation%=F-F0/Ft-F0×100
where F0 = fluorescence intensity of R3 monomer, Ft = fluorescence intensity of R3 aggregate, and F = fluorescence intensity of R3 aggregate in the presence of inhibitors. The IC50 values were also calculated according to the dose−response inhibitory effects.
Tau peptide R3 was adjusted to a concentration of 15 μM using Tris−HCl buffer (pH 7.4), and the synthetic compounds (4GA, 2GA, together with 4ME, GA as the comparison) at different concentrations, as aggregation inhibitor, were added into the reaction mixture separately. Aggregation was induced by heparin, and incubated at 37 °C for 3 h. By introducing fluorescence probe ThS, the dose−response inhibitory effects on R3 aggregation were recorded, according to normalized ThS fluorescence intensity (excitation: 440 nm, emission: 500 nm).
Figure S14. Inhibitory effects of N-substituted Azacrown on heparin-induced R3 aggregation, exermined by ThS fluorescence: 15 μM R3 and 3.8 μM heparin with cyclen, 1ME, 2ME, 3ME, and 4ME (80 μM) was incubated respectively at 37°C for 3h. 10 μM ThS was added to each of the solution, Spectra of ThS fluorescence were recorded at Ex440 nm.

[3] = system: SK-N-SH cells; assay: Cell rescue assay (CCK-8) against R3 aggregates / Cu2+; type: cell-based, human; conditions: R3, heparin, Cu2+ preincubated with compound (20 μM), diluted 1:1, 24 h
Protocol: In this regard, we next evaluated the detoxification effect of 4GA and 2GA in the SK-N-SH cells treated with different components with possible cytotoxicity, including R3, R3 aggregates (R3 + heparin), Cu^2+, 4GA, 2GA, GA, and 4ME in indicated conditions, as shown in Figure 6B.
For cell rescue assay, 30 μM R3, 7.5 μM heparin was incubated in FBS–DMEM containing 7.5 μM Cu^2+ and different compounds (20 μM) at 37 °C for 1 h. Then, 500 μl of preincubated R3 solution was diluted with 500 μl fresh FBS–DMEM, and the mixture was used to replace the old medium after the cell attached to the 96-well plate. After cultured for 24 h, CCK-8 was used to measure the cell viability.

CN1CCN(C(=O)c2cc(O)c(O)c(O)c2)CCN(C)CCN(C(=O)c2cc(O)c(O)c(O)c2)CC1 [2GA, (4,10-dimethyl-1,4,7,10-tetraazacyclododecane-1,7-diyl)bis((3,4,5-trihydroxyphenyl)methanone)]
intracellular tau aggregation (ThS green fluorescence, CLSM) [1]: the green fluorescence disappeared
fluorescence intensity of ThS against the control group [1]: 4.6%
IC50 ([2]; 15 μM R3, 3.8 μM heparin): 5.5 µM
inhibition of R3 assembly (ThS kinetics) ([2]; 37 °C): strongly inhibited R3 assembly
rescue of cell viability against R3 aggregates or Cu2+ [3]: dramatically elevates the cell viability

O=C(c1cc(O)c(O)c(O)c1)N1CCN(C(=O)c2cc(O)c(O)c(O)c2)CCN(C(=O)c2cc(O)c(O)c(O)c2)CCN(C(=O)c2cc(O)c(O)c(O)c2)CC1 [4GA, (1,4,7,10-tetraazacyclododecane-1,4,7,10-tetrayl)tetrakis((3,4,5-trihydroxyphenyl)methanone)]
intracellular tau aggregation (ThS green fluorescence, CLSM) [1]: the green fluorescence disappeared
fluorescence intensity of ThS against the control group [1]: 3.3%
IC50 ([2]; 15 μM R3, 3.8 μM heparin): 3.8 µM
inhibition of R3 assembly (ThS kinetics) ([2]; 37 °C): strongly inhibited R3 assembly
rescue of cell viability against R3 aggregates or Cu2+ [3]: dramatically elevates the cell viability

CN1CCN(C)CCN(C)CCN(C)CC1 [4ME, 1,4,7,10-tetramethyl-1,4,7,10-tetraazacyclododecane, reference compound]
intracellular tau aggregation (ThS green fluorescence, CLSM) [1]: slight inhibitory efficiency
effect on heparin-induced R3 aggregation (ThS fluorescence at 500 nm) ([2]; 80 μM compound, 15 μM R3, 3.8 μM heparin, 37 °C, 3 h): did not hinder the aggregation of R3 peptides
rescue of cell viability against R3 aggregates or Cu2+ [3]: only a limited rescue ability

O=C(O)c1cc(O)c(O)c(O)c1 [GA, gallic acid, reference compound]
intracellular tau aggregation (ThS green fluorescence, CLSM) [1]: slight inhibitory efficiency
IC50 ([2]; 15 μM R3, 3.8 μM heparin): > 80 µM
rescue of cell viability against R3 aggregates or Cu2+ [3]: only a limited rescue ability
